Laboratory results taken from patent US20240147998A1, “HERBICIDAL COMPOSITIONS COMPRISING IMIDAZOLINONE-BASED ACETOLACTATE SYNTHASE INHIBITORS AND USES THEREOF” (Adama Agan Ltd., priority 2021, published 2024).
Like-named read-outs stand apart in the source and are kept apart here.

Tests used:
[1] = Procedure: A formulation comprising imazapic, benzyl alcohol and Tween-20 as detailed in Table 1 was prepared by (i) adding benzyl alcohol to a reactor; adding Tween-20 while mixing; (iii) gradually adding imazapic and continue mixing until the solution obtained is clear; (iv) discharging said solution from the reactor; and (v) filtering the solution using a 5 μm filter.
[2] = 20° C.; cited from earlier work
[3] = 20° C., cited from earlier work

Which “solubility in organic solvents suitable for agricultural applications” value [1] does the source give for `Cc1cnc(C2=NC(=O)C(C)(C(C)C)N2)c(C(=O)O)c1` (stereo not drawn) [imazapic] here?
The value was “dissolve”.

What does the source list for `CC(C)N(C)S(=O)(=O)NC(=O)c1cc(-n2c(=O)cc(C(F)(F)F)n(C)c2=O)c(F)cc1Cl` [saflufenacil, 2-chloro-5-[3,6-dihydro-3-methyl-2,6-dioxo-4-(trifluoromethyl)-1-(2H)pyrimidinyl]-4-fluoro-N-[[methyl(1-methylethyl)amino]sulfonyl]benzamide]?
solubility in isopropyl alcohol [2]: 0.25 g/100 mL; solubility in methanol [2]: 2.98 g/100 mL; solubility in octanol [2]: < 0.01 g/100 mL; solubility in water ([3]; pH 5): 0.0025 g/100 mL; solubility in water ([3]; pH 7): 0.21 g/100 mL
